Source: ChEMBL document CHEMBL5584208, “Conformationally constrained potent inhibitors for enhancer of zeste homolog 2 (EZH2)” (Bioorg Med Chem Lett, 2024)
One block for each compound: values may come before it.

Experiments:
[1] = Oral bioavailability in mouse at 10 mg/kg; type: ADME, organism-based; conditions: in vivo
Pfeiffer [2] = experiment: Antiproliferative activity against human Pfeiffer cells harboring EZH2 A677G mutant; type: functional, cell-based
[3] = AUC (0 to t) in mouse at 10 mg/kg, po; type: ADME, organism-based; conditions: in vivo
WSUDLCL2 = experiment: Antiproliferative activity against human WSUDLCL2 cells harboring EZH2 Y641F mutant; type: functional, cell-based
KARPAS-422 [4] = experiment: Antiproliferative activity against human KARPAS-422 cells harboring EZH2 Y641N mutant; type: functional, cell-based
[5] = Cmax in mouse at 10 mg/kg, po; type: ADME, organism-based; conditions: in vivo
[6] = Cmax in mouse at 2 mg/kg, iv; type: ADME, organism-based; conditions: in vivo
[7] = AUC (0 to infinity) in mouse at 2 mg/kg, iv; type: ADME, organism-based; conditions: in vivo
[8] = Volume of distribution at steady state in mouse at 2 mg/kg, iv; type: ADME, organism-based; conditions: in vivo, read-out: Vdss
[9] = AUC (0 to t) in mouse at 2 mg/kg, iv; type: ADME, organism-based; conditions: in vivo
[10] = Clearance in mouse at 2 mg/kg, iv; type: ADME, organism-based; conditions: in vivo
[11] = AUC (0 to infinity) in mouse at 10 mg/kg, po; type: ADME, organism-based; conditions: in vivo
[12] = Half life in mouse at 2 mg/kg, iv; type: ADME, organism-based; conditions: in vivo
[13] = Half life in mouse at 10 mg/kg, po; type: ADME, organism-based; conditions: in vivo
[14] = Toxicity in mouse xenografted with human Pfeiffer cells harboring EZH2 A677G mutant assessed as body weight loss at 100 mg/kg, po qd for 28 days; type: organism-based; conditions: in vivo, 672 h, time 28 day
[15] = Drug concentration in human KARPAS-422 cells harboring EZH2 Y641N mutant xenografted in mouse at 100 mg/kg, po measured after 4 hrs; type: ADME, organism-based; conditions: KARPAS-422 xenograft tumour, read-out: Ct
[16] = Metabolic stability in dog liver microsomes assessed as half life; type: ADME, Canis lupus familiaris, Microsome
[17] = Metabolic stability in monkey liver microsomes assessed as intrinsic clearance in liver; type: ADME, Macaca mulatta, Microsome; conditions: rhesus monkey, read-out: CLH
[18] = Drug concentration in human KARPAS-422 cells harboring EZH2 Y641N mutant xenografted in mouse at 100 mg/kg, po measured after 8 hrs; type: ADME, organism-based; conditions: KARPAS-422 xenograft tumour, read-out: Ct
[19] = Metabolic stability in mouse liver microsomes assessed as intrinsic clearance in hepatocytes measured per million cells; type: ADME, Microsome
[20] = Metabolic stability in dog liver microsomes assessed as intrinsic clearance in liver; type: ADME, Canis lupus familiaris, Microsome; conditions: read-out: CLH
[21] = Metabolic stability in rat liver microsomes assessed as intrinsic clearance in hepatocytes measured per million cells; type: ADME, Microsome
Pfeiffer [22] = experiment: Antitumor activity against human Pfeiffer cells harboring EZH2 A677G mutant xenografted in mouse at 100 mg/kg, po qd for 28 days relative to control; type: functional; conditions: 672 h, time 28 day, read-out: TGI
[23] = Metabolic stability in mouse liver microsomes assessed as intrinsic clearance in liver; type: ADME, Microsome; conditions: read-out: CLH
[24] = Metabolic stability in human liver microsomes assessed as intrinsic clearance in liver; type: ADME, Microsome; conditions: read-out: CLH
[25] = Metabolic stability in mouse liver microsomes assessed as half life; type: ADME, Microsome
[26] = Metabolic stability in human liver microsomes assessed as half life; type: ADME, Microsome
KARPAS-422 [27] = experiment: Antitumor activity against human KARPAS-422 cells harboring EZH2 Y641N mutant xenografted in mouse at 100 mg/kg, po bid for 28 days relative to control; type: functional; conditions: KARPAS-422, 672 h, time 28 day, read-out: TGI
[28] = Metabolic stability in rat liver microsomes assessed as half life; type: ADME, Microsome
[29] = Toxicity in mouse xenografted with human KARPAS-422 cells harboring EZH2 Y641N mutant assessed as body weight loss at 100 mg/kg, po bid for 28 days; type: organism-based; conditions: in vivo, 672 h, time 28 day
[30] = Metabolic stability in monkey liver microsomes assessed as intrinsic clearance in hepatocytes measured per million cells; type: ADME, Macaca mulatta, Microsome; conditions: rhesus monkey
[31] = Metabolic stability in rat liver microsomes assessed as intrinsic clearance in liver; type: ADME, Microsome; conditions: read-out: CLH
[32] = Metabolic stability in dog liver microsomes assessed as intrinsic clearance in hepatocytes measured per million cells; type: ADME, Canis lupus familiaris, Microsome
[33] = Metabolic stability in human liver microsomes assessed as intrinsic clearance in hepatocytes measured per million cells; type: ADME, Microsome
[34] = Metabolic stability in monkey liver microsomes assessed as half life; type: ADME, Macaca mulatta, Microsome; conditions: rhesus monkey

Compound: CCN(c1cc(-c2ccc3c(c2)NC(=O)C32CCN(C)CC2)cc(C(=O)NCc2c(C)cc(C)[nH]c2=O)c1C)C1CCOCC1
- bioavailability [1]: 0.06%
- IC50 (Pfeiffer [2]): 1.98 nM
- AUC(0-t) [3]: 3.4 ng·h/mL
- IC50 (WSUDLCL2): 3.58 nM
- IC50 (KARPAS-422 [4]): 2.19 nM
- Cmax [5]: 13.5 ng/mL
- Cmax [6]: 3680 ng/mL
- AUC(0-inf) [7]: 1230 ng·h/mL
- Vd [8]: 0.688 L/kg
- AUC(0-t) [9]: 1230 ng·h/mL
- clearance [10]: 27.9 mL/min/kg
- AUC(0-inf) [11]: 3.4 ng·h/mL
- half-life [12]: 37.2 min

- bioavailability [1]: 7.4%
- half-life [13]: 37.2 min
- AUC(0-t) [3]: 122 ng·h/mL
- IC50 (KARPAS-422 [4]): 0.98 nM
- Cmax [5]: 152 ng/mL
- Cmax [6]: 912 ng/mL
- AUC(0-inf) [7]: 340 ng·h/mL
- Vd [8]: 2.61 L/kg
- AUC(0-t) [9]: 331 ng·h/mL
- clearance [10]: 99.7 mL/min/kg
- AUC(0-inf) [11]: 125 ng·h/mL
- half-life [12]: 25.2 min
Compound: CCN(c1cc(-c2ccc3c(c2)NC(=O)C32CCOCC2)cc(C(=O)NCc2c(C)cc(C)[nH]c2=O)c1C)C1CCOCC1
- IC50 (Pfeiffer [2]): 0.56 nM
- IC50 (WSUDLCL2): 1.34 nM

- bioavailability [1]: 32%
- half-life [13]: 52.8 min
- AUC(0-t) [3]: 4340 ng·h/mL
- concentration at 4 h [15]: 2340 ng/mL
- half-life [16]: 20.8 min
- CLint scaled [17]: 237 mL/min/kg
- concentration at 8 h [18]: 416 ng/mL
- IC50 (KARPAS-422 [4]): 3.86 nM
- CLH [19]: 144.6 µL/min
- Cmax [5]: 1950 ng/mL
- CLint scaled [20]: 458 mL/min/kg
- CLH [21]: 74.1 µL/min
- CLint scaled [23]: 1720 mL/min/kg
- CLint scaled [24]: 65.7 mL/min/kg
- half-life [25]: 9.6 min
- half-life [26]: 58.7 min
- Cmax [6]: 2010 ng/mL
- AUC(0-inf) [7]: 2720 ng·h/mL
- Vd [8]: 0.623 L/kg
- AUC(0-t) [9]: 2710 ng·h/mL
- clearance [10]: 12.4 mL/min/kg
- half-life [28]: 18.7 min
- AUC(0-inf) [11]: 4370 ng·h/mL
- CLH [30]: 65.9 µL/min
- CLint scaled [31]: 347 mL/min/kg
- half-life [12]: 35.4 min
- CLH [32]: 66.5 µL/min
- CLH [33]: 23.6 µL/min
- half-life [34]: 21 min
Compound: CCN(c1cc(-c2ccc(CN3CCOCC3)cc2)cc(C(=O)NCc2c(C)cc(C)[nH]c2=O)c1C)C1CCOCC1 [TAZEMETOSTAT]
- IC50 (Pfeiffer [2]): 2.26 nM
- Activity [14]: Non-Toxic
- IC50 (WSUDLCL2): 6.44 nM
- inhibition in vivo at 100 mg/kg (Pfeiffer [22]): 71.9%
- inhibition in vivo at 100 mg/kg (KARPAS-422 [27]): 20.2%
- Activity [29]: Non-Toxic
